Data reported in ChEMBL document CHEMBL6182832, “Design and synthesis of coumarin-based amphoteric antimicrobials with biofilm interference and immunoregulation effects” (RSC Med Chem, 2025).
Values after ≈ are worked out from the molar mass of the structure shown. Active and inactive are the calls of the source. The rule behind the calls is not given here.

Legend:
Escherichia coli [1] = assay: Anti-biofilm activity against clinically isolated Escherichia coli DE17 assessed inhibition of biofilm formation at 0.5 to 128 ug/ml measured after 12 to 16 hrs incubation by crystal violet staining based analysis; format: functional, organism-based; settings: dose 0.5-128 µg/ml, time 12-16 hrs
Escherichia coli [2] = assay: Anti-biofilm activity against clinically isolated Escherichia coli DE17 assessed inhibition of biofilm formation at 16 ug/ml measured after 12 to 16 hrs incubation by crystal violet staining based analysis; format: functional; settings: time 12-16 hrs
Staphylococcus aureus [3] = assay: Anti-biofilm activity against clinically isolated Staphylococcus aureus ATCC29213 assessed inhibition of biofilm formation at 4 ug/ml measured after 12 to 16 hrs incubation by crystal violet staining based analysis; format: functional; settings: time 12-16 hrs
[4] = In vivo toxicity in KM mouse assessed as survival rate at 40 mg/kg, sc relative to control; format: organism-based
[5] = Hemolytic activity in rabbit erythrocytes assessed as hemolysis at >8 ug/ml; format: toxicity, cell-based, Oryctolagus cuniculus; settings: erythrocyte, dose > 8 µg/ml
[6] = In vivo toxicity in KM mouse assessed as hemoglobin (HGB) in blood collected from eyes of mouse at 15 mg/kg, sc; format: organism-based
[7] = In vivo toxicity in KM mouse assessed as redness and swelling skin at site of compound administration at 20 to 40 mg/kg, sc; format: organism-based; settings: dose 20-40 mg/kg
[8] = In vivo toxicity in KM mouse assessed as red blood cells (RBC) in blood collected from eyes of mouse at 15 mg/kg, sc; format: organism-based
Escherichia coli [9] = assay: Antibacterial activity against clinically isolated Escherichia coli ATCC25922 assessed as inhibition of bacterial growth measured after 16 to 24 hrs by broth microdilution method; format: functional; settings: time 16-24 hrs, read-out: MIC100
Staphylococcus aureus [10] = assay: In vivo antibacterial activity against clinically isolated Staphylococcus aureus ATCC29213 infected KM mouse skin abscess model assessed as decrease in bacterial survival in skin at 5 mg/kg, sc measured after 24 hrs by Hematoxylin and Eosin staining based analysis; format: functional, organism-based
[11] = In vivo toxicity in KM mouse assessed as white blood cells (WBC) in blood collected from eyes of mouse at 15 mg/kg, sc; format: organism-based
Staphylococcus aureus [12] = assay: Anti-biofilm activity against clinically isolated Staphylococcus aureus ATCC29213 assessed inhibition of biofilm formation at 2 ug/ml measured after 12 to 16 hrs incubation by crystal violet staining based analysis; format: functional; settings: time 12-16 hrs
Staphylococcus aureus [13] = assay: Antibacterial activity against clinically isolated Staphylococcus aureus ATCC29213 assessed as inhibition of bacterial growth measured after 16 to 24 hrs by broth microdilution method; format: functional; settings: time 16-24 hrs, read-out: MIC100
Staphylococcus aureus [14] = assay: In vivo antibacterial activity against clinically isolated Staphylococcus aureus ATCC29213 infected KM mouse skin abscess model assessed as reduction in size of abscess in dorsal skin and intradermal tissue at 5 mg/kg, sc measured after 24 hrs by Hematoxylin and Eosin staining based analysis; format: functional, organism-based
Escherichia coli [15] = assay: Anti-biofilm activity against clinically isolated Escherichia coli DE17 assessed inhibition of biofilm formation at 8 ug/ml measured after 12 to 16 hrs incubation by crystal violet staining based analysis; format: functional; settings: time 12-16 hrs
Staphylococcus aureus [16] = assay: Antibacterial activity against clinically isolated Staphylococcus aureus ATCC29213 assessed as inhibition of bacterial growth at 2 times of MIC measured after 18 hrs by broth microdilution method; format: functional
[17] = In vivo toxicity in KM mouse assessed as survival rate at 15 mg/kg, sc relative to control; format: organism-based
[18] = In vivo toxicity in KM mouse assessed as albumin (ALB) in blood collected from eyes of mouse at 15 mg/kg, sc; format: organism-based
Staphylococcus aureus [19] = assay: Biofilm eradication activity against Staphylococcus aureus ATCC29213 assessed biofilm scavenging at 2 ug/ml measured after 12 to 16 hrs incubation by crystal violet staining based analysis; format: functional, organism-based; settings: dose 2.0 µg/ml, time 12-16 hrs
[20] = In vivo toxicity in KM mouse assessed as survival rate at 10 mg/kg, sc relative to control; format: organism-based
[21] = In vivo toxicity in KM mouse assessed as urea (UREA) in blood collected from eyes of mouse at 15 mg/kg, sc; format: organism-based
Bacillus cereus = assay: Antibacterial activity against clinically isolated Bacillus cereus CMCC63303 assessed as inhibition of bacterial growth measured after 16 to 24 hrs by broth microdilution method; format: functional; settings: time 16-24 hrs, read-out: MIC100
Bacillus subtilis = assay: Antibacterial activity against clinically isolated Bacillus subtilis ATCC6633 assessed as inhibition of bacterial growth measured after 16 to 24 hrs by broth microdilution method; format: functional; settings: time 16-24 hrs, read-out: MIC100
[22] = In vivo toxicity in KM mouse assessed as mean corpuscular volume (MCV) in blood collected from eyes of mouse at 15 mg/kg, sc; format: organism-based
Listeria monocytogenes = assay: Antibacterial activity against clinically isolated Listeria monocytogenes CICC21662 assessed as inhibition of bacterial growth measured after 16 to 24 hrs by broth microdilution method; format: functional; settings: time 16-24 hrs, read-out: MIC100
[23] = In vivo toxicity in KM mouse assessed as creatinine (CREA) in blood collected from eyes of mouse at 15 mg/kg, sc; format: organism-based
[24] = In vivo toxicity in KM mouse assessed as hematocrit (HCT) in blood collected from eyes of mouse at 15 mg/kg, sc; format: organism-based
[25] = In vivo toxicity in KM mouse assessed as platelet count (PLT) in blood collected from eyes of mouse at 15 mg/kg, sc; format: organism-based
Escherichia coli [26] = assay: Biofilm eradication activity against Escherichia coli DE17 assessed biofilm scavenging at 8 ug/ml measured after 12 to 16 hrs incubation by crystal violet staining based analysis; format: functional, organism-based; settings: dose 8.0 µg/ml, time 12-16 hrs
Enterococcus faecalis = assay: Antibacterial activity against clinically isolated Enterococcus faecalis ATCC29212 assessed as inhibition of bacterial growth measured after 16 to 24 hrs by broth microdilution method; format: functional; settings: time 16-24 hrs, read-out: MIC100
Staphylococcus aureus [27] = assay: Antibacterial activity against clinically isolated Staphylococcus aureus ATCC29213 assessed as inhibition of bacterial growth at 1/2 times of MIC measured after 24 consecutive passages by broth microdilution method; format: functional, organism-based
Staphylococcus aureus [28] = assay: In vivo antibacterial activity against clinically isolated Staphylococcus aureus ATCC29213 infected KM mouse skin abscess model assessed as decrease in bacterial load in skin at 5 mg/kg, sc measured after 24 hrs by Hematoxylin and Eosin staining based analysis; format: functional, organism-based
RAW264.7 = assay: Anti-inflammatory activity against mouse RAW264.7 cells assessed as inhibition LPS-stimulated NO production 0.5 to 4 ug/ml measured after 24 hrs by NO assay kit; format: functional, cell-based; settings: dose 0.5-4 µg/ml
[29] = In vivo toxicity in KM mouse assessed as survival rate at 20 mg/kg, sc relative to control; format: organism-based
Staphylococcus aureus [30] = assay: Antibacterial activity against clinically isolated methicillin-resistant Staphylococcus aureus assessed as inhibition of bacterial growth measured after 16 to 24 hrs by broth microdilution method; format: functional; settings: time 16-24 hrs, read-out: MIC100
Staphylococcus aureus [31] = assay: In vivo antibacterial activity against clinically isolated Staphylococcus aureus ATCC29213 infected KM mouse skin abscess model assessed as aggregation of inflammatory cells into epidermis and dermis of skin at 5 mg/kg, sc measured after 24 hrs by Hematoxylin and Eosin staining based analysis; format: functional, organism-based
[32] = In vivo toxicity in KM mouse assessed as survival rate at 5 mg/kg, sc relative to control; format: organism-based
Escherichia coli [33] = assay: Antibacterial activity against clinically isolated Escherichia coli DE17 assessed as inhibition of bacterial growth measured after 16 to 24 hrs by broth microdilution method; format: functional; settings: time 16-24 hrs, read-out: MIC100
Staphylococcus aureus [34] = assay: Anti-biofilm activity against clinically isolated Staphylococcus aureus ATCC29213 assessed inhibition of biofilm formation at 0.5 to 128 ug/ml measured after 12 to 16 hrs incubation by crystal violet staining based analysis; format: functional, organism-based; settings: dose 0.5-128 µg/ml, time 12-16 hrs
Staphylococcus aureus [35] = assay: Resistance index, ratio of MIC100 for antibacterial activity against clinically isolated Staphylococcus aureus ATCC29213 assessed as inhibition of bacterial growth at 1/2 times of MIC measured after 24 consecutive passages to MIC100 for antibacterial activity against clinically isolated Staphylococcus aureus ATCC29213; format: functional

For `CCN(CC)CCCCCCCCCCCCOc1ccc2ccc(=O)oc2c1`, the Activity (Escherichia coli [1]) was “Dose-dependent-effect”, the inhibition at 16 µg/mL (Escherichia coli [2]) was 100% and the inhibition at 4 µg/mL (Staphylococcus aureus [3]) was 100%. For the same compound, the survival [4] was 100%, the Activity [5] was “Toxic” and the Activity [6] was “Non-toxic”. The Activity [7] was “Toxic”, the Activity [8] was “Non-toxic” and the MIC (Escherichia coli [9]) was greater than 256 µg/mL. For the same compound, the Activity (Staphylococcus aureus [10]) was “Active”, the Activity [11] was “Non-toxic” and the inhibition at 2 µg/mL (Staphylococcus aureus [12]) was 100%. For the same compound, the MIC (Staphylococcus aureus [13]) was 1 µg/mL (≈ 2.49 µM), the Activity (Staphylococcus aureus [14]) was “Active” and the inhibition at 8 µg/mL (Escherichia coli [15]) was 100%. For the same compound, the “inhibition (INH)” value (Staphylococcus aureus [16]) was 100%, the survival [17] was 100% and the Activity [18] was “Non-toxic”. For the same compound, the Activity (Staphylococcus aureus [19]) was “Active”, the survival [20] was 100% and the Activity [21] was “Non-toxic”. The MIC (Bacillus cereus) was 4 µg/mL (≈ 9.96 µM), the MIC (Bacillus subtilis) was 1 µg/mL (≈ 2.49 µM) and the Activity [22] was “Non-toxic”. The MIC (Listeria monocytogenes) was 2 µg/mL (≈ 4.98 µM), the Activity [23] was “Non-toxic” and the Activity [24] was “Non-toxic”. The Activity [25] was “Non-toxic”, the Activity (Escherichia coli [26]) was “Active” and the MIC (Enterococcus faecalis) was 4 µg/mL (≈ 9.96 µM). For the same compound, the Activity (Staphylococcus aureus [27]) was “Active”, the Activity (Staphylococcus aureus [28]) was “Active” and the Activity (RAW264.7) was “Active”. For the same compound, the survival [29] was 100%, the MIC (Staphylococcus aureus [30]) was 2 µg/mL (≈ 4.98 µM) and the Activity (Staphylococcus aureus [31]) was “Active”. The survival [32] was 100%, the MIC (Escherichia coli [33]) was greater than 256 µg/mL and the Activity (Staphylococcus aureus [34]) was “Dose-dependent-effect”.
`Cc1onc(-c2ccccc2)c1C(=O)N[C@@H]1C(=O)N2[C@@H]1SC(C)(C)[C@@H]2C(=O)O` [OXACILLIN] gave a Ratio (Staphylococcus aureus [35]) of 8.
